Laboratory results as given in patent US20230093861A1, “RAPAMYCIN ANALOGS AS MTOR INHIBITORS” (Revolution Medicines, Inc., priority 2017, published 2023).
Where two headings read alike, the source gives them in different places.

Key:
[1] = test system: P-4E-BP1 (T37/46); assay: Cell based AlphaLISA assay, inhibition of P-4E-BP1 (T37/46) (mTORC1 substrate phosphorylation) in MDA-MB-468 cells; details: Homo sapiens, AlphaLISA, two to four hours at 37° C., read-out: pIC50 for Inhibition of mTORC1 and mTORC2 Substrate Phosphorylation, P-4E-BP1-(T37/46) (converted)
How it was run: (§1)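 After treatment, cells were lysed in the kit's buffer once assay medium was withdrawn. Duplicate Alpha measurements tracked each phospho-epitope, and dose-response data were fitted to IC50 following normalization to control wells.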

[2] = test system: P-Akt (S473); assay: Cell based AlphaLISA assay, inhibition of P-Akt (S473) (mTORC2 substrate phosphorylation) in MDA-MB-468 cells; details: Homo sapiens, AlphaLISA, two to four hours at 37° C., read-out: pIC50 for Inhibition of mTORC1 and mTORC2 Substrate Phosphorylation, p-AKT 1/2/3 -(S473) (converted)
How it was run: as §1

[3] = test system: P-P70S6K (T389); assay: Cell based AlphaLISA assay, inhibition of P-P70S6K (T389) (mTORC1 substrate phosphorylation) in MDA-MB-468 cells; details: Homo sapiens, 4 h, AlphaLISA, two to four hours at 37° C., read-out: pIC50 for Inhibition of mTORC1 and mTORC2 Substrate Phosphorylation, P-P70S6K-(T389) (converted)
How it was run: as §1

Row | SMILES | IC50 ([1]; MDA-MB-468, 4 h) | IC50 ([2]; MDA-MB-468, 4 h) | IC50 [3] | IC50 ([1]; 4 h) | IC50 ([2]; 4 h)
1 | CO[C@H]1C[C@@H]2CC[C@@H](C)[C@@](O)(O2)C(=O)C(=O)N2CCCC[C@H]2C(=O)O[C@H]([C@H](C)C[C@@H]2CC[C@@H](OCc3cccc(-c4cnc(N5CCN(C(=O)CCc6cn(CCOCCOCCOCCC(=O)NCCCCn7nc(-c8ccc9oc(N)nc9c8)c8c(N)ncnc87)nn6)CC5)nc4)c3)[C@H](OC)C2)CC(=O)[C@H](C)/C=C(\C)[C@@H](O)[C@@H](OC)C(=O)[C@H](C)C[C@H](C)/C=C/C=C/C=C/1C [Example 46] | < 3.16 nM | 3.16 to 31.6 nM | < 1 nM | – | –
2 | CO[C@H]1C[C@@H]2CC[C@@H](C)[C@@](O)(O2)C(=O)C(=O)N2CCCC[C@H]2C(=O)O[C@H]([C@H](C)C[C@@H]2CC[C@@H](OCc3cccc(-c4cnc(N5CCN(C(=O)CCc6cn(CCOCCOCCC(=O)NCCCCn7nc(-c8ccc9oc(N)nc9c8)c8c(N)ncnc87)nn6)CC5)nc4)c3)[C@H](OC)C2)CC(=O)[C@H](C)/C=C(\C)[C@@H](O)[C@@H](OC)C(=O)[C@H](C)C[C@H](C)/C=C/C=C/C=C/1C [Example 47] | < 3.16 nM | 3.16 to 31.6 nM | < 1 nM | – | –
3 | CO[C@H]1C[C@@H]2CC[C@@H](C)[C@@](O)(O2)C(=O)C(=O)N2CCCC[C@H]2C(=O)O[C@H]([C@H](C)C[C@@H]2CC[C@H](n3nncc3-c3cccc(-c4cnc(N5CCN(C(=O)CCc6cn(CCOCCOCCOCCC(=O)NCCCCn7nc(-c8ccc9oc(N)nc9c8)c8c(N)ncnc87)nn6)CC5)nc4)c3)[C@H](OC)C2)CC(=O)[C@H](C)/C=C(\C)[C@@H](O)[C@@H](OC)C(=O)[C@H](C)C[C@H](C)/C=C/C=C/C=C/1C [Example 48] | < 3.16 nM | 3.16 to 31.6 nM | < 1 nM | – | –
4 | CO[C@H]1C[C@@H]2CC[C@@H](C)[C@@](O)(O2)C(=O)C(=O)N2CCCC[C@H]2C(=O)O[C@H]([C@H](C)C[C@@H]2CC[C@H](n3nncc3-c3cccc(-c4cnc(N5CCN(C(=O)CCc6cn(CCOCCOCCC(=O)NCCCCn7nc(-c8ccc9oc(N)nc9c8)c8c(N)ncnc87)nn6)CC5)nc4)c3)[C@H](OC)C2)CC(=O)[C@H](C)/C=C(\C)[C@@H](O)[C@@H](OC)C(=O)[C@H](C)C[C@H](C)/C=C/C=C/C=C/1C [Example 49] | < 3.16 nM | 31.6 to 1000 nM | < 1 nM | – | –
5 | CO[C@H]1C[C@@H]2CC[C@@H](C)[C@@](O)(O2)C(=O)C(=O)N2CCCC[C@H]2C(=O)O[C@H]([C@H](C)C[C@@H]2CC[C@@H](O)[C@H](OC)C2)C[C@@H](O)[C@H](C)/C=C(\C)[C@@H](O)[C@@H](OC)C(=NOCc2cn(CCOCCOCCOCCOCCOCCOCCOCCOCCC(=O)NCCCCn3nc(-c4ccc5oc(N)nc5c4)c4c(N)ncnc43)nn2)[C@H](C)C[C@H](C)/C=C/C=C/C=C/1C [Example 50] | 3.16 to 31.6 nM | 31.6 to 1000 nM | 1 to 10 nM | – | –
6 | CO[C@H]1C[C@@H]2CC[C@@H](C)[C@@](O)(O2)C(=O)C(=O)N2CCCC[C@H]2C(=O)O[C@H]([C@H](C)C[C@@H]2CC[C@@H](O)[C@H](OC)C2)C[C@@H](O)[C@H](C)/C=C(\C)[C@@H](O)[C@@H](OC)C(=NOCc2cn(CCOCCOCCOCCOCCOCCOCCC(=O)NCCCCn3nc(-c4ccc5oc(N)nc5c4)c4c(N)ncnc43)nn2)[C@H](C)C[C@H](C)/C=C/C=C/C=C/1C [Example 51] | 3.16 to 31.6 nM | 31.6 to 1000 nM | 1 to 10 nM | – | –
7 | COc1ccc(-c2ccc3ncc4c(c3c2)n(-c2ccc(N3CCN(C(=O)CCOCCOCCOCCOCCOCCOCCn5cc(CON=C6[C@H](C)C[C@H](C)/C=C/C=C/C=C(\C)[C@@H](OC)C[C@@H]7CC[C@@H](C)[C@@](O)(O7)C(=O)C(=O)N7CCCC[C@H]7C(=O)O[C@H]([C@H](C)C[C@@H]7CC[C@@H](O)[C@H](OC)C7)C[C@@H](O)[C@H](C)/C=C(\C)[C@@H](O)[C@H]6OC)nn5)CC3)c(C(F)(F)F)c2)c(=O)n4C)cn1 [Example 52] | 3.16 to 31.6 nM | 3.16 to 31.6 nM | < 1 nM | – | –
8 | CO[C@H]1C[C@@H]2CC[C@@H](C)[C@@](O)(O2)C(=O)C(=O)N2CCCC[C@H]2C(=O)O[C@H]([C@H](C)C[C@@H]2CC[C@@H](OCCOCc3cn(CCOCCOCCOCCOCCOCCOCCOCCOCCC(=O)NCCCCn4nc(-c5cc6cc(O)ccc6[nH]5)c5c(N)ncnc54)nn3)[C@H](OC)C2)CC(=O)[C@H](C)/C=C(\C)[C@@H](O)[C@@H](OC)C(=O)[C@H](C)C[C@H](C)/C=C/C=C/C=C/1C [Example 53] | – | – | < 1 nM | < 3.16 nM | 3.16 to 31.6 nM
